{"source": "the NIST ThermoML archive (doi:10.1016/j.tca.2014.12.004)", "key": {"[1]": {"conditions": "for thermal conductivity: 101.33 kPa"}, "[2]": {"assay": "Molar enthalpy of transition or fusion", "conditions": "Crystal; DSC"}}, "note": "± gives the expanded uncertainty stated by the source.", "data": [{"smiles": "CCCCCCCCCCCC(=O)O", "note": "[dodecanoic acid]", "values": [{"measurement": "thermal conductivity", "setting": "[1]; 303.15 K, Crystal", "result": "0.216 ± 0.016", "unit": "W/m/K"}, {"measurement": "thermal conductivity", "setting": "[1]; 308.15 K, Crystal", "result": "0.218 ± 0.016", "unit": "W/m/K"}, {"measurement": "thermal conductivity", "setting": "[1]; 313.15 K, Crystal", "result": "0.208 ± 0.015", "unit": "W/m/K"}, {"measurement": "thermal conductivity", "setting": "[1]; 323.15 K, Liquid", "result": "0.14 ± 0.01", "unit": "W/m/K"}, {"measurement": "thermal conductivity", "setting": "[1]; 333.15 K, Liquid", "result": "0.14 ± 0.01", "unit": "W/m/K"}, {"measurement": "Normal melting temperature", "setting": "[1]; Crystal, DTA", "result": "42.80 ± 5", "unit": "°C"}, {"measurement": "Molar enthalpy of transition or fusion", "setting": "[2]", "result": "7.56 ± 0.621", "unit": "kcal/mol"}]}]}
